According to PubChem BioAssay AID328 (DTP/NCI, 2004):
Several values for one entry are separate records, joined by “and”; a condition that tells them apart may be missing. Equal entries are not always repeated. Inconclusive results and toxic doses are left out.

Test system: BDF1 mice, P388 leukemia ip, median survival T/C
Assay: NCI In Vivo Anticancer Drug Screen. Data for tumor model P388 Leukemia (intraperitoneal) in B6D2F1 (BDF1) mice
Conditions: endpoint: median survival time, higher = longer survival
Procedure, shortened: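 Read-out is survival of treated animals expressed relative to the vehicle group, as a T/C ratio.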

[1] = dose: 100.0 mg/kg/injection, schedule: Q01DX001 (ip), vehicle: saline with Tween-80
[2] = dose: 100.0 mg/kg/injection, schedule: Q01DX009 (ip), vehicle: saline with Tween-80
[3] = dose: 100.0 mg/kg/injection, schedule: Q04DX003 (ip), vehicle: saline with Tween-80
[4] = dose: 200.0 mg/kg/injection, schedule: Q01DX009 (ip), vehicle: saline with Tween-80
[5] = dose: 12.5 mg/kg/injection, schedule: Q01DX009 (ip), vehicle: saline
[6] = dose: 25.0 mg/kg/injection, schedule: Q01DX009 (ip), vehicle: saline
[7] = dose: 50.0 mg/kg/injection, schedule: Q01DX009 (ip), vehicle: saline
[8] = dose: 200.0 mg/kg/injection, schedule: Q01DX009 (ip), vehicle: saline
[9] = dose: 200.0 mg/kg/injection, schedule: Q04DX003 (ip), vehicle: Klucel (hydroxypropylcellulose) (HPC)
[10] = dose: 25.0 mg/kg/injection, schedule: Q04DX003 (ip), vehicle: saline with Tween-80
[11] = dose: 25.0 mg/kg/injection, schedule: Q04DX003 (ip), vehicle: saline
[12] = dose: 50.0 mg/kg/injection, schedule: Q04DX003 (ip), vehicle: saline
[13] = dose: 100.0 mg/kg/injection, schedule: Q04DX003 (ip), vehicle: saline

## CN(C)c1ccc(C(O)(Cc2cccc(C#N)c2)c2ccc(N(C)C)cc2)cc1
dose: 100.0 mg/kg/injection, schedule: Q04DX002 (ip), vehicle: saline with Tween-80
  T/C: 95 % of control
dose: 200.0 mg/kg/injection, schedule: Q04DX002 (ip), vehicle: saline with Tween-80
  T/C: 89 % of control
dose: 400.0 mg/kg/injection, schedule: Q04DX002 (ip), vehicle: saline with Tween-80
  T/C: 98 % of control

## O=C1c2ccccc2CC1(Cl)Cl
[1]
  T/C: 101 % of control
dose: 200.0 mg/kg/injection, schedule: Q01DX001 (ip), vehicle: saline with Tween-80
  T/C: 96 % of control
dose: 400.0 mg/kg/injection, schedule: Q01DX001 (ip), vehicle: saline with Tween-80
  T/C: 101 % of control

## COc1cc(-c2nc3ccccc3c(=O)o2)cc(OC)c1OC
dose: 50.0 mg/kg/injection, schedule: Q01DX009 (ip), vehicle: saline with Tween-80
  T/C: 105 % of control
[2]
  T/C: 115 % of control
[3]
  T/C: 100 % of control
[4]
  T/C: 100 % of control
dose: 200.0 mg/kg/injection, schedule: Q04DX003 (ip), vehicle: saline with Tween-80
  T/C: 100 % of control

## CCOC(=O)c1[nH]c(C)nc1/N=N/N(C)C
[5]
  T/C: 114 % of control
[6]
  T/C: 103 % of control and 121 % of control
[7]
  T/C: 111 % of control
[8]
  T/C: 154 % of control and 180 % of control

## COc1cc(NC(=O)CN(CCCl)CCCl)cc(OC)c1OC
dose: 7.7 mg/kg/injection, schedule: Q04DX003 (ip), vehicle: Klucel (hydroxypropylcellulose) (HPC)
  T/C: 107 % of control
dose: 30.0 mg/kg/injection, schedule: Q04DX003 (ip), vehicle: Klucel (hydroxypropylcellulose) (HPC)
  T/C: 122 % of control
dose: 60.0 mg/kg/injection, schedule: Q04DX003 (ip), vehicle: Klucel (hydroxypropylcellulose) (HPC)
  T/C: 104 % of control and 114 % of control
dose: 90.0 mg/kg/injection, schedule: Q04DX003 (ip), vehicle: Klucel (hydroxypropylcellulose) (HPC)
  T/C: 177 % of control
[9]
  T/C: 209 % of control
dose: 300.0 mg/kg/injection, schedule: Q04DX003 (ip), vehicle: Klucel (hydroxypropylcellulose) (HPC)
  T/C: 122 % of control

## CC1CN1S(=O)(=O)N1CC1C (centres undefined)
dose: 3.75 mg/kg/injection, schedule: Q01DX009 (ip), vehicle: saline with Tween-80
  T/C: 100 % of control
dose: 7.5 mg/kg/injection, schedule: Q01DX009 (ip), vehicle: saline with Tween-80
  T/C: 112 % of control
dose: 15.0 mg/kg/injection, schedule: Q01DX009 (ip), vehicle: saline with Tween-80
  T/C: 158 % of control
dose: 16.5 mg/kg/injection, schedule: Q04DX003 (ip), vehicle: saline with Tween-80
  T/C: 113 % of control
[10]
  T/C: 154 % of control and 213 % of control
dose: 30.0 mg/kg/injection, schedule: Q01DX009 (ip), vehicle: saline with Tween-80
  T/C: 258 % of control
dose: 37.5 mg/kg/injection, schedule: Q04DX003 (ip), vehicle: saline with Tween-80
  T/C: 204 % of control

## C=C(COC(C)(C)C)CN(C)C
dose: 25.0 mg/kg/injection, schedule: Q01DX009 (ip), vehicle: acetone
  T/C: 92 % of control
dose: 50.0 mg/kg/injection, schedule: Q01DX009 (ip), vehicle: acetone
  T/C: 100 % of control
dose: 100.0 mg/kg/injection, schedule: Q01DX009 (ip), vehicle: acetone
  T/C: 96 % of control

## CCCCCCCCCCCCCC[S+](C)C
[5]
  T/C: 118 % of control
[6]
  T/C: 100 % of control
[11]
  T/C: 100 % of control
[12]
  T/C: 104 % of control

## O=S(=O)(Nc1cc(S(=O)(=O)c2ccccc2)c(O)c2ccccc12)c1ccccc1
dose: 75.0 mg/kg/injection, schedule: Q01DX001 (ip), vehicle: saline with Tween-80
  T/C: 90 % of control
dose: 150.0 mg/kg/injection, schedule: Q01DX001 (ip), vehicle: saline with Tween-80
  T/C: 90 % of control
dose: 300.0 mg/kg/injection, schedule: Q01DX001 (ip), vehicle: saline with Tween-80
  T/C: 100 % of control

## CC(NC(=O)OCc1ccccc1)C(=O)NC(CC(=O)O)C(=O)O (centres undefined)
[11]
  T/C: 100 % of control
[12]
  T/C: 100 % of control
[13]
  T/C: 110 % of control

## C[C@]12CC[C@H]3[C@@H](CCC4=CC(=O)CC[C@@H]43)[C@@H]1CC[C@@H]2OC(=O)CCc1ccccc1
[2]
  T/C: 100 % of control
[3]
  T/C: 86 % of control
[4]
  T/C: 100 % of control
dose: 400.0 mg/kg/injection, schedule: Q01DX009 (ip), vehicle: saline with Tween-80
  T/C: 90 % of control
dose: 400.0 mg/kg/injection, schedule: Q04DX003 (ip), vehicle: saline with Tween-80
  T/C: 86 % of control

## CCCCN1C/C(=C\c2ccc(Br)cc2)C(=O)/C(=C/c2ccc(Br)cc2)C1
dose: 6.25 mg/kg/injection, schedule: Q01DX005 (ip), vehicle: saline with Tween-80
  T/C: 91 % of control
dose: 12.5 mg/kg/injection, schedule: Q01DX005 (ip), vehicle: saline with Tween-80
  T/C: 95 % of control

## O=C(CCCc1ccc(N(CCCl)CCCl)cc1)Nc1ccccc1
dose: 25.0 mg/kg/injection, schedule: Q01DX009 (ip), vehicle: saline sonified
  T/C: 109 % of control
[10]
  T/C: 120 % of control
dose: 50.0 mg/kg/injection, schedule: Q01DX009 (ip), vehicle: saline sonified
  T/C: 100 % of control
dose: 100.0 mg/kg/injection, schedule: Q01DX009 (ip), vehicle: saline sonified
  T/C: 113 % of control
[3]
  T/C: 210 % of control

## CC(=O)Oc1ccc(OC(C)=O)c2c1CC(C)=C(C)C2
[7]
  T/C: 107 % of control
dose: 100.0 mg/kg/injection, schedule: Q01DX009 (ip), vehicle: saline
  T/C: 113 % of control
[13]
  T/C: 109 % of control
[8]
  T/C: 109 % of control
dose: 200.0 mg/kg/injection, schedule: Q04DX003 (ip), vehicle: saline
  T/C: 116 % of control
dose: 400.0 mg/kg/injection, schedule: Q01DX009 (ip), vehicle: saline
  T/C: 118 % of control

## COc1cc(OC)c2c(O)c3c(c(-c4ccc5cc6c(c(O)c5c4O)C(=O)CC(C)(O)C6)c2c1)CC(C)OC3C (centres undefined)
dose: 0.19 mg/kg/injection, schedule: Q01DX009 (ip), vehicle: olive oil, sesame oil, peanut oil
  T/C: 106 % of control
dose: 0.39 mg/kg/injection, schedule: Q01DX009 (ip), vehicle: olive oil, sesame oil, peanut oil
  T/C: 91 % of control
dose: 0.78 mg/kg/injection, schedule: Q01DX009 (ip), vehicle: olive oil, sesame oil, peanut oil
  T/C: 106 % of control
dose: 1.56 mg/kg/injection, schedule: Q01DX009 (ip), vehicle: olive oil, sesame oil, peanut oil
  T/C: 102 % of control and 111 % of control

## C#CCOC(=O)Nc1cccc2ccccc12
dose: 100.0 mg/kg/injection, schedule: Q01DX009 (ip), vehicle: Klucel (hydroxypropylcellulose) (HPC)
  T/C: 100 % of control
dose: 100.0 mg/kg/injection, schedule: Q04DX003 (ip), vehicle: Klucel (hydroxypropylcellulose) (HPC)
  T/C: 100 % of control
dose: 200.0 mg/kg/injection, schedule: Q01DX009 (ip), vehicle: Klucel (hydroxypropylcellulose) (HPC)
  T/C: 110 % of control
[9]
  T/C: 100 % of control
dose: 400.0 mg/kg/injection, schedule: Q01DX009 (ip), vehicle: Klucel (hydroxypropylcellulose) (HPC)
  T/C: 120 % of control
dose: 400.0 mg/kg/injection, schedule: Q04DX003 (ip), vehicle: Klucel (hydroxypropylcellulose) (HPC)
  T/C: 109 % of control

## c1ccc2n[se]nc2c1
dose: 1.56 mg/kg/injection, schedule: Q04DX003 (ip), vehicle: saline
  T/C: 108 % of control
dose: 3.13 mg/kg/injection, schedule: Q04DX003 (ip), vehicle: saline
  T/C: 108 % of control and 109 % of control
dose: 6.25 mg/kg/injection, schedule: Q04DX003 (ip), vehicle: saline
  T/C: 106 % of control and 109 % of control
dose: 12.5 mg/kg/injection, schedule: Q04DX003 (ip), vehicle: saline
  T/C: 104 % of control

## COC(=O)/C(C)=C/C1N=C1c1ccccc1 (centres undefined)
[1]
  T/C: 120 % of control
